Assay results reported in the OligoGym collection.
Several values for one entry are separate records, joined by “and”; a condition that tells them apart may be missing. Equal entries are not always repeated. After the bases stand the sugars from the 5' end (letter, count) and the backbone: PS all phosphorothioate, else s phosphorothioate and o phosphodiester by linkage. Methylation of C is not given here. e = 2'-O-(2-methoxyethyl) (MOE); k = constrained ethyl (cEt); d = 2'-deoxy (DNA)

Target: IRF4
Settings: ASO

| Sequence | target mRNA inhibition (MM.1R, 1 µM) | target mRNA inhibition (SK-MEL-28, 4 µM) | further results |
| --- | --- | --- | --- |
| TCTATAGTGTTCCAGG (sugars k3 d9 k3 e1, PS) | 52% | – | – |
| TCTATAGTGTTCCAGG (sugars kddddddddddkekek, PS) | 16% | – | – |
| TCTATAGTGTTCCAGG (sugars kkddddddddddkeke, PS) | 66% | – | target mRNA inhibition (MM.1R, 0.074 µM): 15%; target mRNA inhibition (MM.1R, 0.222 µM): 32%; target mRNA inhibition (MM.1R, 0.666 µM): 58%; target mRNA inhibition (MM.1R, 2 µM): 83% |
| TCTCCAAAGCATAGAG (sugars k3 d10 k3, PS) | -8% | – | – |
| TCTGGATTGCTGATGT (sugars k3 d10 k3, PS) | 36% | – | – |
| TCTGTAGGGCGACTAA (sugars k3 d10 k3, PS) | – | 65% | – |
| TCTGTATAGTTCTCAA (sugars k3 d10 k3, PS) | 42% and 40% | – | target mRNA inhibition (MM.1R, 0.0625 µM): -2% and 0%; target mRNA inhibition (MM.1R, 0.25 µM): 16% and 26%; target mRNA inhibition (MM.1R, 4 µM): 69% and 71% |
| TCTTCCAGCAAGACCT (sugars k3 d10 k3, PS) | – | 28% | – |
| TCTTGAATAGAGGAAT (sugars k3 d10 k3, PS) | – | 42% | – |
| TCTTTGAAGTGCTGTG (sugars k3 d10 k3, PS) | – | 57% | – |
| TCTTTTTAGTTCATAC (sugars k3 d10 k3, PS) | – | 26% | – |
| TGAAAGACCCCAGCTA (sugars k3 d10 k3, PS) | – | 4% | – |
| TGAAATGTCAAACCCT (sugars k3 d10 k3, PS) | – | 54% | – |
| TGAACGGAAGTTTACA (sugars k3 d10 k3, PS) | 14% | – | – |
| TGAATAGAGGAATGGC (sugars k3 d10 k3, PS) | – | 21% | – |
| TGACAAGAACTGCTGT (sugars k3 d10 k3, PS) | – | 18% | – |
| TGACATCATTTAGGTA (sugars k3 d10 k3, PS) | – | 54% | – |
| TGACATGCTTTGTCCT (sugars k3 d10 k3, PS) | – | 59% | – |
| TGAGAGACGAAAACAG (sugars k3 d10 k3, PS) | – | -9% | – |
| TGAGATATTCCTCTCA (sugars k3 d10 k3, PS) | 18% | – | – |
| TGATAGCTGAGCTGAT (sugars kkddddddddddkeke, PS) | -17% | – | – |
| TGATAGTGGTGATGTC (sugars k3 d10 k3, PS) | – | 54% | – |
| TGATGTGATAGCTGAG (sugars k2 d9 e3 k2, PS) | 47% | – | – |
| TGATGTGATAGCTGAG (sugars kddddddddddkekek, PS) | 18% | – | – |
| TGATGTGATAGCTGAG (sugars kkddddddddddkeke, PS) | 54% | – | – |
| TGATGTGATAGCTGAG (sugars kkdddddddddekeke, PS) | 60% | – | – |

| Sequence | target mRNA inhibition (MM.1R, 1 µM) | target mRNA inhibition (SK-MEL-28, 4 µM) | further results |
| --- | --- | --- | --- |
| TGATGTGATAGCTGAG (sugars kkdddddddddkdkdk, PS) | 14% | – | – |
| TGCAACTGGCTCACTA (sugars k3 d10 k3, PS) | – | 17% | – |
| TGCAAGTATGTAGCAA (sugars k3 d10 k3, PS) | – | 3% | – |
| TGCATCTATAAGATGT (sugars k4 d8 k4, PS) | – | 10% | – |
| TGCCAATCAGATGTCA (sugars k3 d10 k3, PS) | – | 22% | – |
| TGCCTAGGACTAAGGA (sugars k3 d10 k3, PS) | – | 26% | – |
| TGCGAAGAATTTTAGC (sugars k3 d10 k3, PS) | – | 41% | – |
| TGCTACTGCGGACATC (sugars k3 d10 k3, PS) | – | 43% | – |
| TGCTAGGACACAGCTG (sugars k3 d10 k3, PS) | – | 43% | – |
| TGCTTGAGGTTTTCCT (sugars k3 d10 k3, PS) | – | 80% and 76% | – |
| TGCTTGAGGTTTTCCT (sugars kddddddddddkekek, PS) | 36% | – | – |
| TGCTTGAGGTTTTCCT (sugars kkddddddddddkeke, PS) | 33% | – | – |
| TGCTTGAGGTTTTCCT (sugars kkdddddddddkekek, PS) | 36% | – | – |
| TGGAACAGTAACTTGA (sugars k3 d10 k3, PS) | – | 12% | – |
| TGGAACTCATAGGTGT (sugars k3 d10 k3, PS) | – | 62% | – |
| TGGAACTCTAGTGTCC (sugars k3 d10 k3, PS) | – | 2% | – |
| TGGAGATACTTGTACT (sugars k3 d10 k3, PS) | 42% and 21% | – | target mRNA inhibition (MM.1R, 0.0625 µM): -15%; target mRNA inhibition (MM.1R, 0.25 µM): -7%; target mRNA inhibition (MM.1R, 4 µM): 58% |
| TGGAGGTCTTTGGGAT (sugars k3 d10 k3, PS) | – | 58% | – |
| TGGATCCTGAGAGTAA (sugars k3 d10 k3, PS) | 0% | – | – |
| TGGATCTGAATTGTTA (sugars k3 d10 k3, PS) | – | 55% | – |
| TGGATTGATGTGATAG (sugars k3 d10 k3, PS) | 48% | – | – |
| TGGATTGCTGATGTGT (sugars k3 d10 k3, PS) | 71% and 75% | – | target mRNA inhibition (MM.1R, 0.0625 µM): 45%; target mRNA inhibition (MM.1R, 0.25 µM): 58%; target mRNA inhibition (MM.1R, 4 µM): 90% |
| TGGCACAGTCTTTTCG (sugars k3 d10 k3, PS) | – | 28% | – |
| TGGCAGTCTACAGAAC (sugars k3 d10 k3, PS) | – | -22% | – |
| TGGCATGCGAATGTGC (sugars k3 d10 k3, PS) | -21% | – | – |
| TGGCTAGCAGAGGTTC (sugars k4 d8 k4, PS) | – | 9% | – |

| Sequence | target mRNA inhibition (MM.1R, 1 µM) | target mRNA inhibition (SK-MEL-28, 4 µM) | further results |
| --- | --- | --- | --- |
| TGGTAACTGTATGGAA (sugars k3 d10 k3, PS) | – | 48% | – |
| TGGTAATCTTCTGGAT (sugars k3 d10 k3, PS) | – | 24% | – |
| TGGTTGGCTGGTCTTT (sugars kdddddddddkekeke, PS) | 31% | – | – |
| TGGTTGGCTGGTCTTT (sugars kkdddddddddekeke, PS) | 60% | – | – |
| TGGTTGGCTGGTCTTT (sugars kkdddddddddkekek, PS) | 44% | – | – |
| TGTAACTCTGAGTAGA (sugars k3 d10 k3, PS) | – | 43% | – |
| TGTAACTGAGGACTCA (sugars k3 d10 k3, PS) | – | -2% | – |
| TGTAAGGGCTGCTCAT (sugars k3 d10 k3, PS) | – | 49% | – |
| TGTAAGGTCTGAGAGC (sugars k3 d10 k3, PS) | – | 25% | – |
| TGTAATGTAGGGATAC (sugars k3 d10 k3, PS) | – | 53% | – |
| TGTAGTATGAGAAACG (sugars kkddddddddddkeke, PS) | 10% | – | – |
| TGTATACCAACGACAG (sugars k3 d10 k3, PS) | – | 58% | – |
| TGTCACTATGCCTGAA (sugars k3 d10 k3, PS) | – | 27% | – |
| TGTGATAGCTGAGCTG (sugars kkdddddddddekeke, PS) | 41% | – | – |
| TGTGATAGCTGAGCTG (sugars kkdddddddddkdkdk, PS) | 47% | – | – |
| TGTGCTTGCCAAGCCT (sugars kddddddddddkekek, PS) | -1% and 3% | – | – |
| TGTGCTTGCCAAGCCT (sugars kkdddddddddkdkdk, PS) | 23% and 21% | – | – |
| TGTGTATTACTCTTAG (sugars kkdddddddddekeke, PS) | 54% and 66% | – | – |
| TGTGTCAAAGAGCTTG (sugars k4 d8 k4, PS) | – | 26% | – |
| TGTTAAGTCCCATCTG (sugars k3 d10 k3, PS) | – | 25% | – |
| TGTTACCGATGCTTCA (sugars kkdddddddddekeke, PS) | 35% and 49% | – | – |
| TGTTACTTTCAAATCG (sugars k3 d10 k3, PS) | – | 48% | – |
| TTAAAGAGCGCATTTC (sugars k3 d10 k3, PS) | – | 41% | – |
| TTAATTATGCAGAAGC (sugars k3 d10 k3, PS) | – | 13% | – |
| TTACACCCAGAAGTAC (sugars k3 d10 k3, PS) | – | 5% | – |
| TTACACTGGATCTGAA (sugars k3 d10 k3, PS) | – | 38% | – |

| Sequence | target mRNA inhibition (MM.1R, 1 µM) | target mRNA inhibition (SK-MEL-28, 4 µM) | further results |
| --- | --- | --- | --- |
| TTACATCCTAGAACAC (sugars k3 d10 k3, PS) | – | 3% | – |
| TTACCGCATTGCTAGA (sugars k3 d10 k3, PS) | 13% and 26% | – | – |
| TTAGGAACGAAGAGCA (sugars k3 d10 k3, PS) | – | 32% | – |
| TTATAACCGGTAGAGT (sugars k3 d10 k3, PS) | – | 38% | – |
| TTATAGTAGGTAAGAT (sugars k3 d10 k3, PS) | – | 2% | – |
| TTATATACTGGTTGGT (sugars k3 d10 k3, PS) | – | 49% | – |
| TTATATACTGGTTGGT (sugars kddddddddddkekek, PS) | 22% | – | – |
| TTATATACTGGTTGGT (sugars kkdddddddddkdkdk, PS) | 18% | – | – |
| TTATATATGACGACTT (sugars k3 d10 k3, PS) | – | 35% | – |
| TTATGCCATGGACAAG (sugars k3 d10 k3, PS) | 19% | – | – |
| TTATGTTAGCCAATTC (sugars kddddddddddkekek, PS) | 2% and 6% | – | – |
| TTATGTTAGCCAATTC (sugars kkddddddddddkeke, PS) | 11% and 16% | – | – |
| TTATGTTAGCCAATTC (sugars kkdddddddddekeke, PS) | 9% and 8% | – | – |
| TTATGTTAGCCAATTC (sugars kkdddddddddkdkdk, PS) | 17% and 26% | – | – |
| TTCAGCAGAAAGTGGG (sugars k3 d10 k3, PS) | – | 48% | – |
| TTCAGCCACGAGGCAC (sugars k3 d10 k3, PS) | – | 5% | – |
| TTCATGTAAAGTCTGC (sugars kkddddddddddkeke, PS) | 49% and 28% | – | – |
| TTCCAACAATAGCAAC (sugars k3 d10 k3, PS) | – | 46% | – |
| TTCCACACTGGATATG (sugars k3 d10 k3, PS) | – | 41% | – |
| TTCCATAGAGCCAGAG (sugars k3 d10 k3, PS) | – | 37% | – |
| TTCCATAGATCAACAT (sugars k3 d10 k3, PS) | – | 44% | – |
| TTCCGTAGTCAGCTCC (sugars k3 d10 k3, PS) | – | 68% | – |
| TTCCTGTAACAGGCTA (sugars k3 d10 k3, PS) | – | 63% and 77% | – |
| TTCGAGAGAAATATAC (sugars k3 d10 k3, PS) | 22% | – | – |
| TTCGAGGTGATTCTCG (sugars k3 d10 k3, PS) | – | 5% | – |
